system: KM12-luc cells; experiment: Cell proliferation and growth inhibition assay (CCK-8) in KM12-luc; format: cell-based; conditions: KM12-Luc, 72 h, KM12-luc cells, treated with test compounds for 72 hrs, CCK-8 viability; read-out: NTRK IC50 in KM12-luc
How it was run: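 Cells were grown at 37 °C, 5% CO2 with 10% FBS: MV-4-11 in IMDM, H1975 in RPMI 1640, KM12-luc in DMEM. Viability was read by CCK-8 (1-4 hrs reagent incubation, absorbance at OD450). IC50 came from a non-linear sigmoidal dose-response fit.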

| SMILES | IC50 |
| --- | --- |
| COc1cnc(Nc2ccc(OCCN(C)C)c(N)c2)nc1-c1cn(C)c2c(F)cccc12 [Compound 283, 4-(2-(dimethylamino)ethoxy)-N^1-(4-(7-fluoro-1-methyl-1H-indol-3-yl)-5-methoxypyrimidin-2-yl)benzene-1,3-diamine] | 86.4 nM |
| CN(C)CCN(C)c1ccc(Nc2ncc(Cl)c(-c3cn(C)c4c(F)cccc34)n2)cc1N [Compound 417, N^4-(5-chloro-4-(7-fluoro-1-methyl-1H-indol-3-yl)pyrimidin-2-yl)-N^1-(2-(dimethylamino)ethyl)-N^1-methylbenzene-1,2,4-triamine] | 94.2 nM |
| CC(=O)Nc1cc(Nc2ncc(Cl)c(-c3cn(C)c4c(C)cccc34)n2)ccc1N1CC[C@@H](N(C)C)C1 [Compound R-432, (R)—N-(5-((5-chloro-4-(1,7-dimethyl-1H-indol-3-yl)pyrimidin-2-yl)amino)-2-(3-(dimethylamino)pyrrolidin-1-yl)phenyl)acetamide] | 130 nM |
| Cc1ccc2[nH]cc(-c3nc(Nc4ccc(N(C)CCN(C)C)c(N(C)C)c4)nc4[nH]ccc34)c2c1 [Compound 239, N^1-(2-(dimethylamino)ethyl)-N^1,N^2,N^2-trimethyl-N^4-(4-(5-methyl-1H-indol-3-yl)-7H-pyrrolo[2,3-d]pyrimidin-2-yl)benzene-1,2,4-triamine] | 518 nM |
| Cc1nc2ccc(Nc3ncc(Cl)c(-c4c[nH]c5ccccc45)n3)cc2[nH]1 [Compound 394b, N-(5-chloro-4-(1H-indol-3-yl)pyrimidin-2-yl)-2-methyl-1H-benzo[d]imidazol-6-amine] | 131 nM |
| CC(=O)Nc1cc(Nc2ncc(C(F)(F)F)c(-c3cn(C)c4ccccc34)n2)c(F)cc1N(C)CCN(C)C [Compound 313, N-(2-((2-(dimethylamino)ethyl)(methyl)amino)-4-fluoro-5-((4-(1-methyl-1H-indol-3-yl)-5-(trifluoromethyl)pyrimidin-2-yl)amino)phenyl)acetamide] | 308 nM |
| CCN(CCN(C)C)c1ccc(Nc2ncc(C(F)(F)F)c(-c3cn(C)c4ccccc34)n2)cc1N [Compound 310, N^1-(2-(dimethylamino)ethyl)-N^1-ethyl-N^4-(4-(1-methyl-1H-indol-3-yl)-5-(trifluoromethyl)pyrimidin-2-yl)benzene-1,2,4-triamine] | 305 nM |
| CN(C)CCN(C)c1ccc(Nc2ncc(C(F)(F)F)c(-c3c[nH]c4cccc(F)c34)n2)cc1N [Compound 317, N^1-(2-(dimethylamino)ethyl)-N^4-(4-(4-fluoro-1H-indol-3-yl)-5-(trifluoromethyl)pyrimidin-2-yl)-N^1-methylbenzene-1,2,4-triamine] | 24.9 nM |
| CC(=O)Nc1cc(Nc2ncc(Cl)c(-c3cn(C)c4ccccc34)n2)ccc1N(C)C(=O)CCN(C)C [Compound 404, N-(2-acetamido-4-((5-chloro-4-(1-methyl-1H-indol-3-yl)pyrimidin-2-yl)amino)phenyl)-3-(dimethylamino)-N-methylpropanamide] | 26.5 nM |
| COc1cccc2c(-c3ncc(C(F)(F)F)c(Nc4ccc(N5CC[C@H](N(C)C)C5)c(NC(C)=O)c4)n3)c[nH]c12 [Compound S-382b, (S)—N-(2-(3-(dimethylamino)pyrrolidin-1-yl)-5-((2-(7-methoxy-1H-indol-3-yl)-5-(trifluoromethyl)pyrimidin-4-yl)amino)phenyl)acetamide] | 349 nM |
| CC(=O)Nc1cc(Nc2ncc(F)c(-c3cn(C)c4cccc(F)c34)n2)ccc1N(C)CCN(C)C [Compound 264, N-(2-((2-(dimethylamino)ethyl)(methyl)amino)-5-((5-fluoro-4-(4-fluoro-1-methyl-1H-indol-3-yl)pyrimidin-2-yl)amino)phenyl)acetamide] | 1040 nM |
| CCN(CCN(C)C)c1ccc(Nc2ncc(C(F)(F)F)c(-c3c[nH]c4cc(F)ccc34)n2)cc1N [Compound 332, N^1-(2-(dimethylamino)ethyl)-N^1-ethyl-N^4-(4-(6-fluoro-1H-indol-3-yl)-5-(trifluoromethyl)pyrimidin-2-yl)benzene-1,2,4-triamine] | 127 nM |
| CC(=O)Nc1cc(Nc2nc(-c3c[nH]c4ccccc34)c3cc[nH]c3n2)ccc1N(C)CCN(C)C [Compound 189, N-(5-((4-(1H-indol-3-yl)-7H-pyrrolo[2,3-d]pyrimidin-2-yl)amino)-2-((2-(dimethylamino)ethyl)(methyl)amino)phenyl)acetamide] | 28.7 nM |
| CCN(CCN(C)C)c1ccc(Nc2nc(-c3cn(C)c4ccccc34)c3occc3n2)cc1NC(C)=O [Compound 256c, N-(2-((2-(dimethylamino)ethyl)(ethyl)amino)-5-((4-(1-methyl-1H-indol-3-yl)furo[3,2-d]pyrimidin-2-yl)amino)phenyl)acetamide] | 587 nM |
| CN(C)CCN(C)c1ccc(C(=O)Nc2c[nH]c3cnc(Nc4cc(F)cc(F)c4)nc23)c(NC2CCOCC2)c1 [Compound 493, N-(2-((3,5-difluorophenyl)amino)-5H-pyrrolo[3,2-d]pyrimidin-7-yl)-4-((2-(dimethylamino)ethyl)(methyl)amino)-2-((tetrahydro-2H-pyran-4-yl)amino)benzamide] | > 10000 nM |
| CC(=O)Nc1cc(Nc2nc(-c3cn(C)c4ccccc34)c3occc3n2)ccc1N(C)CCN(C)C [Compound 256a, N-(2-((2-(dimethylamino)ethyl)(methyl)amino)-5-((4-(1-methyl-1H-indol-3-yl)furo[3,2-d]pyrimidin-2-yl)amino)phenyl)acetamide] | 447 nM |
| COc1cnc(Nc2ccc(N3CC[C@@H](N(C)C)C3)c(NC(C)=O)c2)nc1-c1c[nH]c2c(F)cccc12 [Compound R-280, (R)—N-(2-(3-(dimethylamino)pyrrolidin-1-yl)-5-((4-(7-fluoro-1H-indol-3-yl)-5-methoxypyrimidin-2-yl)amino)phenyl)acetamide] | 15.6 nM |
| CCN(CCN(C)C)c1ccc(Nc2nc(-c3c[nH]c4cc(F)ccc34)ncc2C(F)(F)F)cc1NC(C)=O [Compound 331b, N-(2-((2-(dimethylamino)ethyl)(ethyl)amino)-5-((2-(6-fluoro-1H-indol-3-yl)-5-(trifluoromethyl)pyrimidin-4-yl)amino)phenyl)acetamide] | 2020 nM |
| CC(=O)Nc1cc(Nc2ncc(C(F)(F)F)c(-c3cn(C)c4c(F)cccc34)n2)ccc1N1CC[C@H](N(C)C)C1 [Compound S-353, (S)—N-(2-(3-(dimethylamino)pyrrolidin-1-yl)-5-((4-(7-fluoro-1-methyl-1H-indol-3-yl)-5-(trifluoromethyl)pyrimidin-2-yl)amino)phenyl)acetamide] | 35.2 nM |
| CN(C)[C@@H]1CCN(c2ccc(Nc3ncc(C(F)(F)F)c(-c4c[nH]c5c(F)cccc45)n3)cc2N)C1 [Compound R-345, (R)-4-(3-(dimethylamino)pyrrolidin-1-yl)-N^1-(4-(7-fluoro-1H-indol-3-yl)-5-(trifluoromethyl)pyrimidin-2-yl)benzene-1,3-diamine] | 6.2 nM |
| CN(C)[C@@H]1CCN(c2ccc(Nc3ncc(C(F)(F)F)c(-c4cn(C)c5c(F)cccc45)n3)cc2N)C1 [Compound R-354, (R)-4-(3-(dimethylamino)pyrrolidin-1-yl)-N^1-(4-(7-fluoro-1-methyl-1H-indol-3-yl)-5-(trifluoromethyl)pyrimidin-2-yl)benzene-1,3-diamine] | 69.1 nM |
| CN(C)[C@H]1CCN(c2ccc(Nc3ncc(C(F)(F)F)c(-c4c[nH]c5c(F)cccc45)n3)cc2N)C1 [Compound S-345, (S)-4-(3-(dimethylamino)pyrrolidin-1-yl)-N^1-(4-(7-fluoro-1H-indol-3-yl)-5-(trifluoromethyl)pyrimidin-2-yl)benzene-1,3-diamine] | 8.2 nM |
| CC(=O)Nc1cc(Nc2ncc(C(F)(F)F)c(-c3cn(C)c4c(C)cccc34)n2)ccc1OCCN(C)C [Compound 372, N-(5-((4-(1,7-dimethyl-1H-indol-3-yl)-5-(trifluoromethyl)pyrimidin-2-yl)amino)-2-(2-(dimethylamino)ethoxy)phenyl)acetamide] | 30.2 nM |
| CCN(CCN(C)C)c1ccc(Nc2ncc(C(F)(F)F)c(-c3c[nH]c4ccccc34)n2)cc1N [Compound 301, N^4-(4-(1H-indol-3-yl)-5-(trifluoromethyl)pyrimidin-2-yl)-N^1-(2-(dimethylamino)ethyl)-N-ethylbenzene-1,2,4-triamine] | 75.4 nM |
| CC(=O)Nc1cc(Nc2ncc(C(F)(F)F)c(-c3cn(C)c4ccccc34)n2)ccc1OCCN(C)C [Compound 315, N-(2-(2-(dimethylamino)ethoxy)-5-((4-(1-methyl-1H-indol-3-yl)-5-(trifluoromethyl)pyrimidin-2-yl)amino)phenyl)acetamide] | 85.1 nM |
| CN(C)CCN(C)c1ccc(Nc2nc(-c3cn(C)c4ccccc34)c3cc[nH]c3n2)cc1N(C)C [Compound 207, N^1-(2-(dimethylamino)ethyl)-N^1,N^2,N^2-trimethyl-N^4-(4-(1-methyl-1H-indol-3-yl)-7H-pyrrolo[2,3-d]pyrimidin-2-yl)benzene-1,2,4-triamine] | 348 nM |
| Cc1nc2cc(Nc3ncc(C(F)(F)F)c(-c4cn(C)c5c(F)cccc45)n3)ccc2n1CCN(C)C [Compound 351, 1-(2-(dimethylamino)ethyl)-N-(4-(7-fluoro-1-methyl-1H-indol-3-yl)-5-(trifluoromethyl)pyrimidin-2-yl)-2-methyl-1H-benzo[d]imidazol-5-amine] | 172 nM |
| Cc1cccc2c(-c3nc(Nc4ccc5c(c4)nc(C)n5CCN(C)C)ncc3C(F)(F)F)c[nH]c12 [Compound 364, 1-(2-(dimethylamino)ethyl)-2-methyl-N-(4-(7-methyl-1H-indol-3-yl)-5-(trifluoromethyl)pyrimidin-2-yl)-1H-benzo[d]imidazol-5-amine] | 20.1 nM |

same assay, conditions: KM12-Luc, 72 h, read-out: NTRK IC50 in KM12-luc

| SMILES | IC50 |
| --- | --- |
| CCNc1cc(Nc2nc(-c3cn(C)c4cc(F)ccc34)c3cc[nH]c3n2)ccc1N(C)CCN(C)C [Compound 232b, N^1-(2-(dimethylamino)ethyl)-N^2-ethyl-N^4-(4-(6-fluoro-1-methyl-1H-indol-3-yl)-7H-pyrrolo[2,3-d]pyrimidin-2-yl)-N^1-methylbenzene-1,2,4-triamine] | 492 nM |

— US20250136576A1, “Heterocyclic Compounds and Uses Thereof” (ACEA Therapeutics, Inc., priority 2021, published 2025)
